Ten molecules from PubChem BioAssay (NCI) can be followed below.

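Five concentrations, 48 hours, 96-well plates. GI50 marks 50% less growth. TGI: total growth inhibition.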 Where only a bound is given, the exact number is not on record here.

What all share (assay): NCI-60 cell line screen, 48 h
In experiment [1] the test system is HL-60(TB) leukemia.
Experiment [2] concerns MDA-MB-231 breast.
Experiment [3] deals with T-47D breast.
The subject of experiment [4] is HCT-15 colon.
The subject of experiment [5] is A498 renal.
The test system of experiment [6] is DU-145 prostate.
In experiment [7] the test system is COLO 205 colon.
For experiment [8], the system named is LOX IMVI melanoma.
Experiment [9] has as its system CAKI-1 renal.
The test system of experiment [10] is SR leukemia.

For the molecule `Cc1nc2sc(C(=O)Nc3cccc4ccccc34)c(N)c2cc1C(=O)/C=C/c1ccccc1`, the GI50 in experiment [1] was 353 nM; in [2] it was 709 nM; in [3] it was 0.724 µM; in experiment [4], 185 nM; in experiment [5], 0.337 µM; in experiment [6] it was 0.822 µM. Moreover, the GI50 is 0.957 µM in [7], 183 nM in [8], 422 nM in experiment [9] and 164 nM in experiment [10]. The TGI was 1.82 µM in [1]; 2.61 µM in experiment [2]; above 11 µM in experiment [3]; 0.789 µM in [4]; 1.87 µM in [5]; 3.6 µM in [6]. In addition, the TGI in experiment [7] was 2.64 µM; in experiment [8], 0.64 µM; in experiment [9], 1.44 µM; in experiment [10], above 10.1 µM.

`C/C([O-])=C1\Cc2ccccc2C1=O.C/C([O-])=C1\Cc2ccccc2C1=O.CC[O-].CC[O-].[Ti+4]`: the GI50 is 13100 nM in experiment [1]; 12900 nM in [2]; 15.5 µM in [3]; 11800 nM in experiment [4]; 13.4 µM in [5]; 26.4 µM in experiment [6]. The GI50 was 27.4 µM in [7], 13000 nM in experiment [8], 36500 nM in experiment [9] and 19100 nM in [10]. The TGI in [1] is 50.8 µM; in experiment [2] it was 70.9 µM; in [3], 92.4 µM; in [4], 79.4 µM; in [5] it was 31.5 µM; in experiment [6], above 100 µM. For the same molecule, the TGI in experiment [7] is 67.4 µM; in [8], 32 µM; in [9] it was above 100 µM; in experiment [10], above 79.9 µM.

`CCc1ccccc1N1CCN(C(=O)c2cc(OC)c(OC)c(OC)c2)CC1`: the TGI in [1] is 1.62 µM; in experiment [2] it was above 100 µM; in experiment [3], 67.9 µM; in [4], above 23.6 µM; in [5], 0.985 µM; in experiment [6], 0.715 µM. Further, the TGI in experiment [7] is 0.108 µM; in [8], 29.3 µM; in experiment [9], 43 µM; in [10], above 55.1 µM.

As to `Cn1c(=O)c(Oc2ccc(F)cc2F)cc2cnc(NC(CO)CO)nc21`, the GI50 in experiment [1] is above 25000 nM; in experiment [2], above 25000 nM; in experiment [3], above 25 µM; in experiment [4], above 25000 nM; in [5], above 25 µM; in experiment [6], above 25 µM. Also, the GI50 was above 25 µM in experiment [7], above 25000 nM in experiment [8], above 25000 nM in experiment [9] and above 25000 nM in [10]. For the same molecule, the TGI in experiment [1], in [2], in experiment [3], in experiment [4], in [5] and in experiment [6] was above 25 µM in each case. In addition, the TGI in [7], in experiment [8], in experiment [9] and in experiment [10] was above 25 µM each time.

As for `O=C1C=C[C@@]23C[C@@H](Nc4c(O)c5c6c(c42)=NCCC=6C=N5)SC3=C1`, the TGI in experiment [1] was 5.61 µM; in experiment [2], 3.35 µM; in [3], 7.47 µM; in experiment [4] it was 7.94 µM; in [5], 25.3 µM; in [6] it was 30.9 µM. Moreover, the TGI in [7] is 2.92 µM; in experiment [8], 3.78 µM; in [9], 32.1 µM; in [10], 6.14 µM. The GI50 in experiment [2] is 1620 nM; in experiment [3], 2.96 µM; in experiment [4], 2850 nM; in experiment [5], 9.04 µM; in [6], 17.1 µM; in experiment [8], 1820 nM. Besides, the GI50 in [10] was 2260 nM.

As to `Cc1nc2cnc3cc(F)c(-c4ccc(Oc5ncccn5)cc4Cl)cc3c2n1[C@H]1CCN(C(=O)CO)C[C@@H]1F`, the GI50 in experiment [1] is 106 nM; in experiment [2], 101 nM; in [3], 36 µM; in experiment [4], 3600 nM; in [5], 4.58 µM; in experiment [6], 4.36 µM. For the same molecule, the GI50 is 0.0229 µM in experiment [7], 417 nM in experiment [8], 558 nM in experiment [9] and 13300 nM in [10]. Further, the TGI in experiment [1] is 1.69 µM; in experiment [2], 5.83 µM; in experiment [3], above 100 µM; in experiment [4], above 100 µM; in experiment [5] it was above 84.9 µM; in experiment [6], above 100 µM. Moreover, the TGI in experiment [7] was found to be 1.68 µM; in experiment [8], 11.5 µM; in experiment [9], 16.4 µM; in experiment [10] it was 54.4 µM.

`O=C(/C=C/c1cccs1)c1ccc(Nc2nc(Nc3ccc(F)cc3)nc(Nc3ccc(F)cc3)n2)cc1`: the GI50 is 62200 nM in experiment [1]; 34700 nM in [2]; 15.2 µM in experiment [3]; 37400 nM in experiment [4]; 9.24 µM in [5]; 52.7 µM in [6]. The GI50 in experiment [7] is 12.5 µM; in [8], 32100 nM; in [9], 38100 nM; in [10], 14700 nM. Besides, the TGI in [1] is above 100 µM; in [2] it was above 100 µM; in experiment [3], 79.1 µM; in [4], above 100 µM; in [5], above 100 µM; in experiment [6], above 100 µM. The TGI in experiment [7] was 80.2 µM; in experiment [8], above 100 µM; in experiment [9], above 100 µM; in experiment [10], 60.1 µM.

Consider `CCc1cccc2c3c(sc12)C(c1ccc(Cl)cc1)C(C#N)=C(N)O3` (configuration not stated), for which the GI50 in experiment [1] is 355 nM; in experiment [2], 1560 nM; in experiment [3] it was 0.493 µM; in experiment [4] it was 418 nM; in experiment [5], 0.224 µM; in [6], 0.596 µM. In addition, the GI50 in [7] was 0.81 µM; in [8], 545 nM; in experiment [9], 403 nM; in experiment [10], 414 nM. In addition, the TGI in [1] worked out at 9.48 µM; in [2], 7.72 µM; in [3], 16.1 µM; in [4], 9.59 µM; in experiment [5], 1.52 µM; in [6], 11.4 µM. The TGI in experiment [7] came to 6.27 µM; in experiment [8], 4.22 µM; in experiment [9], 14 µM; in experiment [10], 31.8 µM.

As for `Nc1ncnc2c1ncn2CC(O)C(=O)O` (configuration not stated), the TGI in experiment [1], in experiment [2], in experiment [3], in experiment [4], in experiment [5] and in experiment [6] was above 100 µM in each case. The TGI in experiment [7], in [8], in [9] and in experiment [10] was above 100 µM throughout.

As to `Cn1ccnc1C(=O)/C=C/c1ccc(CC(=O)Nc2ccc(S(F)(F)(F)(F)F)cc2)cc1`, the GI50 in experiment [1] is 620 nM; in experiment [2], 2910 nM; in experiment [3], 3.1 µM; in [4] it was 878 nM; in experiment [5], 3.12 µM; in [6], 2.25 µM. For the same molecule, the GI50 is 3.08 µM in experiment [7], 1190 nM in experiment [8], 2660 nM in experiment [9] and 530 nM in experiment [10]. The TGI in experiment [1] stood at 4.47 µM; in experiment [2] it was 6.66 µM; in experiment [3], 10.4 µM; in [4], 11.7 µM; in experiment [5] it was 6.14 µM; in experiment [6] it was 4.53 µM. Besides, the TGI in [7] worked out at 6.66 µM; in experiment [8], 3.34 µM; in experiment [9], 5.72 µM; in experiment [10] it was 1.86 µM.
